From patent US6166209A, “Piperidine derivatives” (Hoffmann-La Roche Inc., priority 1997, dated 2000)
Structures can show the parent of a compound that is named as a salt.

How the values were obtained:
[1] = target: T1, OFQ receptor (rat, LC132) (Rattus norvegicus, UniProt P35370); test: OFQ-R binding assay: [3H]-OFQ competition on membranes of 293s-OFQ-R cells; conditions: Ki from IC50 by Cheng and Prusoff, at least 6 concentrations in triplicate, determined twice, read-out: OFQ pKi (converted)
T1 construct: expressed in transfected cells; host or cells: HEK-293 cells adapted to suspension growth (293s), vector pCEP4; total membrane fraction of 293s-OFQ-R cells
T1 sequence (P35370 whole entry): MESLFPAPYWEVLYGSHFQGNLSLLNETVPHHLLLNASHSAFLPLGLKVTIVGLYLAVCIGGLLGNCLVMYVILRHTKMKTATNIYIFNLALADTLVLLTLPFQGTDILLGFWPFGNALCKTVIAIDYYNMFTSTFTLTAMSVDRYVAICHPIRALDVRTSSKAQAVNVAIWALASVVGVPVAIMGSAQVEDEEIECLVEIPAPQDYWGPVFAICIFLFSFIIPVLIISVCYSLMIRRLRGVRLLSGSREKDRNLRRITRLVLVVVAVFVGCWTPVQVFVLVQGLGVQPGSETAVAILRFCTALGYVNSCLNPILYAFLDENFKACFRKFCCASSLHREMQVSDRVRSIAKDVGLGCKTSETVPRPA
Procedure: Methods of OFQ-R Binding Assay
HEK-293 cells adapted to suspension growth (293s) were cultured in HL medium plus 2% FBS. The cells were transfected with the rat OFQ receptor cDNA (LC132), FEBS Lett. 347, 284-288, 1994, cloned in the expression vector pCEP4 (Invitrogen, San Diego, Calif., USA) using lipofectin (Life Technologies, Bethesda, Md., USA). Transfected cells were selected in the presence of hygromycin (1000 U/ml) (Calbiochem, San Diego, Calif., USA). A pool of resistant cells was tested for OFQ-R expression by binding of [^3 H]-OFQ (Amersham PLC, Buckinghamshire, England). These cells (293s-OFQ-R) were expanded for large scale culture and membrane preparation.
293s-OFQ-R cells were harvested by centrifugation, washed 3 times with phosphate buffered saline (PBS) before resuspension in buffer A (50 mM Tris-HCl, pH 7.8, 5 mM MgCl2, 1 mM EGTA) and disruption with a tissue homogenizer (30 seconds, setting 4, Pt 20, Kinematica, Kriens-Lucern, Switzerland). A total membrane fraction was obtained by centrifugation at 49,000×g at 4° C. This procedure was repeated twice and the pellet was resuspended in buffer A. Aliquots were stored at -70° C. and protein concentrations were determined using the BCA™ Protein Assay Reagent (Pierce, Rockford, Ill.) following the manufacturer's recommendations.
[^3 H]-OFQ competition studies were carried out with 77 μg membrane protein in a final assay volume of 0.5 ml buffer A plus 0.1% BSA and 0.01% bacitracin (Boehringer-Mannheim, Mannheim, Germany) for one hour at room temperature. 50 nM unlabeled OFQ was used to define the non-specific binding. […] The retained radioactivity was counted on a Packard Top-Count microplate scintillation counter after addition of 40 μl of Microscint 40 (Canberra Packard). The effects of compounds were determined using at least 6 concentrations in triplicate, and determined twice. IC50 values were determined by curve fitting and these calues were converted to Ki values by the method of Cheng and Prusoff, Biochem. Pharmacol., 22, 3099, 1973.

mice [2] = conditions: intra-cerebroventricular; cited from earlier work
OFQ-R = conditions: both in vitro and in vivo; cited from earlier work
mice [3] = conditions: intra-cerebroventricular; cited from earlier work; remark: listed apart in the source
[4] = tested on: adenylate cyclase in CHO(LC 132^+) cells; conditions: CHO(LC 132+) cells in culture; cited from earlier work

Row | Compound | Ki [1] | hyperalgesia (mice [2]) | agonistic activity at the OFQ-R (OFQ-R) | locomotive activity (mice [3]) | inhibition of adenylate cyclase [4]
1 | c1ccc(C(OCCN2CCC3(CC2)OCc2ccccc23)c2ccccc2)cc1 [Example C, 1'-(2Benzhydryloxy-ethyl)-3H-spiro[isobenzofuran-1,4'-piperidine]hydrochloride (1:1)] | 0.0126 µM | – | – | – | –
2 | O=C1OC2(CCN(CCNC3c4ccccc4CCc4ccccc43)CC2)c2ccccc21 [A/1, 1'-[2-(10,11-Dihydro-5H-dibenzo[a,d]cyclohepten-5-ylamino)-ethyl]-spiro[isobenzofuran-1,4'-piperidin]-3-one methansulfonate (1:2)] | 0.0501 µM | – | – | – | –
3 | F-G-G-F-T-G-A-R-K-S-A-R-K-L-A-N-Q (FGGFTGARKSARKLANQ) [OFQ, seventeen amino-acid-long peptide isolated from rat brain, natural ligand for a G-protein coupled receptor (OFQ-R)] | – | induces hyperalgesia | exhibits agonistic activity | slows down locomotive activity | inhibits adenylate cyclase
4 | c1ccc2c(c1)CCCCC2NCCN1CCC2(CC1)OCc1ccccc12 (stereo not shown) [B/5, [2-(3H-Spiro[isobenzofuran-1,4'-piperidin]-1'yl)-ethyl]-(5,6,7,8-tetrahydro-4H-benzocyclohepten-4-yl)-amine hydrochloride (1:2)] | 0.1 µM | – | – | – | –
